Measured values as given in patent US11246931B2, “Active pharmaceutical ingredient carrier and production method of the same” (Tokuyama Corporation, priority 2017, dated 2022).

Assay: Elution test, paddle method of the Japanese Pharmacopoeia (elution rate by HPLC)
Format: physicochemical
Conditions: 37±0.5° C., 75 rpm; for Elution rate (%) 10 min: 10 min after addition; for Elution rate (%) 60 min: 60 min after addition; for Elution rate (%) 120 min: 120 min after addition
Description: The elution test was performed according to the paddle method in the Japanese Pharmacopoeia the 17th edition. Specifically, the test solution was set to 900 mL of the elution test solution No. 1 of the Japanese Pharmacopoeia, the temperature was set to 37±0.5° C., the rotation speed was set to 75 rpm, the sample to be tested was loaded, and then about 1 mL was sampled at regular intervals, filtered through a syringe filter, and then subjected to HPLC analysis to determine the peak area of the active pharmaceutical ingredient. The obtained area was compared to the peak area of the active pharmaceutical ingredient at the elution rate of 100% to calculate the elution rate (%).
The elution rate is a value obtained by performing HPLC analysis with 200 mg of an IBP crystal all dissolved in 900 mL of the test solution, taking the obtained area as the elution rate of 100%, adding the active pharmaceutical ingredient or the active pharmaceutical ingredient carrier to the eluate, then performing sampling overtime, performing filtering and HPLC analysis to calculate the area, and comparing the area to the value of the elution rate of 100%.
An active pharmaceutical ingredient carrier (corresponding to 200 mg of an active pharmaceutical ingredient) (0.66 g) was weighed, and subjected to the elution test according to the paddle method in the Japanese Pharmacopoeia elution test method using the elution test solution No. 1 (pH 1.2). The temperature of the test solution was 37±0.5° C., and the rotation speed was 75 rpm. Sampling was performed at 5 minutes, 10 minutes, 15 minutes, 30 minutes, and then once every 15 minutes until 120 minutes after addition of the active pharmaceutical ingredient carrier, the obtained sample was immediately filtered using a syringe filter, and the elution rate (%) was calculated as described above from the peak area of the active pharmaceutical ingredient by high performance liquid chromatography (HPLC) with a UV detector.
The elution test of an IBP crystal was performed in the same manner as described above except that an ibuprofen active pharmaceutical ingredient (IBP crystals) was used instead of the active pharmaceutical ingredient carrier.
In the same manner as in the elution test, the elution test of the obtained active pharmaceutical ingredient carrier or the ezetimibe active ingredient (an ETB crystal) was performed. This test was performed using the elution test solution No. 1 (pH 1.2) same as that described above and the elution test solution No. 2 (pH 6.8).
In the same manner as described above, the elution test of the obtained active pharmaceutical ingredient carrier or the celecoxib active ingredient (a CXB crystal) was performed using the elution test solution No. 1 (pH 1.2) or the elution test solution No. 2 (pH 6.8).
In the same manner as described above, the elution test of the obtained active pharmaceutical ingredient carrier or the azilsartan active ingredient (an AZL crystal) was performed using the elution test solution No. 1 (pH 1.2).

[1] = elution test solution No. 1 (pH 1.2), 900 mL
[2] = elution test solution No. 2 (pH 6.8)

Row | Elution rate (%) 10 min [1] | Elution rate (%) 60 min [1] | Elution rate (%) 120 min [1] | Elution rate (%) 10 min [2] | Elution rate (%) 60 min [2] | Elution rate (%) 120 min [2] | Compound
1 | 6.1% | 8.4% | 8.4% | 6.6% | 8.3% | 8.2% | O=C1[C@H](CC[C@H](O)c2ccc(F)cc2)[C@@H](c2ccc(O)cc2)N1c1ccc(F)cc1 [ETB crystal, ezetimibe]
2 | 1.1% | 6.0% | 10.1% |  |  |  | CC(C)Cc1ccc(C(C)C(=O)O)cc1 (stereo not drawn) [IBP crystal, ibuprofen]
3 | 0.58% | 4.7% | 7.4% |  |  |  | CCOc1nc2cccc(C(=O)O)c2n1Cc1ccc(-c2ccccc2-c2nc(=O)o[nH]2)cc1 [AZL crystal, azilsartan]
